Source: patent US8557848B2, “4,5-ring annulated indole derivatives for treating or preventing of HCV and related viral infections” (Merck Sharp & Dohme Corp., priority 2006, dated 2013)
Where two headings read alike, the source gives them in different places.

Key:
[1] = system: HCV replicon cells (replicon RNA level); assay: Cell-Based HCV Replicon Assay; conditions: Hepatitis C virus, 72 h; replicon RNA level by real time PCR (Taqman), cells harvested on day 3; read-out: EC50
Protocol: To measure cell-based anti-HCV activity of the a Compound of Formula (I), replicon cells were seeded at 5000 cells/well in 96-well collagen I-coated Nunc plates in the presence of the Compound of Formula (I). Various concentrations of a Compound of Formula (I), typically in 10 serial 2-fold dilutions, were added to the assay mixture, with the starting concentration ranging from 250 μM to 1 μM. The final concentration of DMSO was 0.5%, fetal bovine serum was 5%, in the assay media. Cells were harvested on day 3 by the addition of 1× cell lysis buffer (Ambion cat #8721). The replicon RNA level was measured using real time PCR (Taqman assay). The amplicon was located in 5B. The PCR primers were: 5B.2F, ATGGACAGGCGCCCTGA; 5B.2R, […]; the probe sequence was FAM-labeled CACGCCATGCGCTGCGG. GAPDH RNA was used as endogenous control and was amplified in the same reaction as NS5B (multiplex PCR) using primers and VIC-labeled probe recommended by the manufacturer (PE Applied Biosystem). The real-time RT-PCR reactions were run on ABI PRISM 7900HT Sequence Detection System using the following program: 48° C. for 30 min, 95° C. for 10 min, 40 cycles of 95° C. for 15 sec, 60° C. for 1 min. The ΔCT values (CT5B-CTGAPDH) were plotted against the concentration of test compound and fitted to the sigmoid dose-response model using XLfit4 (MDL). EC50 was defined as the concentration of inhibitor necessary to achieve ΔCT=1 over the projected baseline; EC90 the concentration necessary to achieve ΔCT=3.2 over the baseline. Alternatively, to quantitate the absolute amount of replicon RNA, a standard curve was established by including serially diluted T7 transcripts of replicon RNA in the Taqman assay. All Taqman reagents were from PE Applied Biosystems. Such an assay procedure was described in detail in e.g. Malcolm et al., Antimicrobial Agents and Chemotherapy 50: 1013-1020 (2006).
HCV Replicon assay data for selected Compounds of Formula (I) is provided below in Table 1, wherein the compound numbers correspond to the compound numbering set forth in the above specification.

[2] = target: T1, HCV NS5B polymerase (NS5BΔCT21, from HCV-Con 1 isolate, genotype 1b) (Hepatitis C virus genotype 1b, UniProt Q9WMX2); assay: HCV NS5B Polymerase Inhibition Assay; format: biochemical
T1 construct: A soluble C-terminal 21-amino acid truncated NS5B enzyme form; polyhistidine (C); made in house; host or cells: Escherichia coli
From the text: A chemically synthesized 75-mer version, designated DCoH75, whose sequence matches the 3′-end of D-RNA, and DCoH75ddC, where the 3′-terminal cytidine of DCoH75 is replaced by dideoxycytidine, were used for assaying the NS5B enzyme activity as described in Ferrari et al., 12th International Symposium on HCV and Related Viruses, P-306 (2005). The sequence of the template RNA was: 5′-UGUGCCGGUCUUUCUGAACGGGAUAUAAACCUGGCCAGCUUCAUCGAACAAGUUGCCGUGUCUAUGACAUAGAUC-3′. A soluble C-terminal 21-amino acid truncated NS5B enzyme form (NS5BΔCT21, from HCV-Con 1 isolate, genotype 1b, Genbank accession number AJ238799) was produced and purified from Escherichia coli as C-terminal polyhistidine-tagged fusion protein as described in Ferrari et al., J. Virol. 73:1649-1654 (1999). A typical assay contained 20 mM Hepes pH 7.3, 10 mM MgCl2, 60 mM NaCl, 100 μg/ml BSA, 20 units/ml RNasin, 7.5 mM DTT, 0.1 μM ATP/GTP/UTP, 0.026 μM CTP, 0.25 mM GAU, 0.03 μM RNA template, 20 μCi/ml [^33P]-CTP, 2% DMSO, and 30 or 150 nM NS5B enzyme. Reactions were incubated at 22° C. for 2 hours, then stopped by adding 150 mM EDTA, washed in DE81 filter plate in 0.5M di-basic sodium phosphate buffer, pH 7.0, and counted using Packard TopCount after the addition of scintillation cocktail. Polynucleotide synthesis was monitored by the incorporation of radiolabeled CTP. The effect of the Compounds of Formula (I) on the polymerase activity was evaluated by adding various concentrations of a Compound of Formula (I), typically in 10 serial 2-fold dilutions, to the assay mixture. The starting concentrations ranged from 200 μM to 1 μM. An IC50 value for the inhibitor, defined as the compound concentration that provides 50% inhibition of polymerase activity, was determined by fitting the cpm data to the Hill equation Y=100/(1+10^((LogIC50-X)*HillSlope)), where X is the logarithm of compound concentration, and Y is the % inhibition. Ferrari et al., 12th International Symposium on HCV and Related Viruses, P-306 (2005) described in detail this assay procedure. It should be noted that such an assay as described is exemplary and not intended to limit the scope of the invention. The skilled practitioner can appreciate that modifications including but not limited to RNA template, primer, nucleotides, NS5B polymerase form, buffer composition, can be made to develop similar assays that yield the same result for the efficacy of the compounds and compositions described in the invention.
NS5B polymerase inhibition data for selected Compounds of Formula (I) is provided below in Table 2, wherein the compound numbers correspond to the compound numbering set forth in the above specification.

[3] = NS5B polymerase inhibition, [33P]-CTP incorporation, 22° C. for 2 hours, read-out: IC50

SMILES	EC50 [1] [nM]	IC50 [2, 3] [nM]	IC50 [2] [nM]
O=C(O)c1c(-c2ccc[nH]c2=O)c2c3occc3ccc2n1Cc1ccccc1F [Compound 1]	< 500	< 25	–
CS(=O)(=O)NC(=O)c1c(-c2ccc[nH]c2=O)c2c3occc3ccc2n1Cc1ccc(F)cc1F [Compound 4]	< 500	25 to 100	–
CS(=O)(=O)NC(=O)c1c(-c2ccc[nH]c2=O)c2c3occc3ccc2n1Cc1ccccc1F [Compound 4]	< 500	< 25	–
CS(=O)(=O)NC(=O)c1c(-c2ccc[nH]c2=O)c2c3ccoc3ccc2n1Cc1ccc(F)cc1F [Compound 9]	> 1500	< 25	–
COc1ccc(S(=O)(=O)NC(=O)c2c(-c3ccc[nH]c3=O)c3c4ccoc4ccc3n2Cc2ccc(F)cc2F)cc1 [Compound 10]	> 1500	25 to 100	–
CS(=O)(=O)Nc1cccc(S(=O)(=O)NC(=O)c2c(-c3ccc[nH]c3=O)c3c4ccoc4ccc3n2Cc2ccc(F)cc2F)c1 [Compound 11]	> 1500	25 to 100	–
CS(=O)(=O)NC(=O)c1c(-c2ccc[nH]c2=O)c2c3c(ccc2n1Cc1cc(F)ccc1F)CCC3 [Compound 12]	500 to 1500	< 25	–
Nc1cc(Cn2c(C(=O)O)c(-c3ccc[nH]c3=O)c3c4scnc4ccc32)ccn1 [Compound 13]	> 1500	> 100	–
Nc1cc(Cn2c(C(=O)O)c(-c3ccc[nH]c3=O)c3c4ncsc4ccc32)ccn1 [Compound 14]	500 to 1500	< 25	–
O=C(O)c1c(-c2ccc[nH]c2=O)c2c3occc3ccc2n1Cc1ccc(F)cc1F [Compound 16]	500 to 1500	< 25	–
O=C(O)c1c(-c2ccc[nH]c2=O)c2c3scnc3ccc2n1Cc1ccc(F)cc1F [Compound 16]	> 1500	> 100	–
O=C(O)c1c(-c2ccc[nH]c2=O)c2c3ncsc3ccc2n1Cc1ccc(F)cc1F [Compound 17]	> 1500	< 25	–
CCc1coc2c1ccc1c2c(-c2ccc[nH]c2=O)c(C(=O)O)n1Cc1cc(F)ccc1F [Compound 24]	> 1500	> 100	–
O=C(O)c1c(-c2ccc[nH]c2=O)c2c3sccc3ccc2n1Cc1cc(F)ccc1F [Compound 33]	> 1500	25 to 100	–
O=C(O)c1c(-c2ccc[nH]c2=O)c2c3sccc3ccc2n1Cc1ccccc1F [Compound 34]	500 to 1500	25 to 100	–
O=C(O)c1c(-c2ccc[nH]c2=O)c2c3c(ccc2n1Cc1cc(F)ccc1F)OC(F)(F)O3 [Compound 37]	> 1500	< 25	–
O=C(O)c1c(-c2ccc[nH]c2=O)c2c3ccoc3ccc2n1Cc1ccccc1F [Compound 39]	> 1500	25 to 100	–
O=C(O)c1c(-c2ccc[nH]c2=O)c2c3ccoc3ccc2n1Cc1cc(F)ccc1F [Compound 40]	> 1500	25 to 100	–
Cc1ccccc1Cn1c(C(=O)O)c(-c2ccc[nH]c2=O)c2c3occc3ccc21 [Compound 41]	< 500	< 25	–
CCc1coc2c1ccc1c2c(-c2ccc[nH]c2=O)c(C(=O)O)n1Cc1ccccc1F [Compound 43]	> 1500	> 100	–
O=C(O)c1c(-c2ccc[nH]c2=O)c2c3occ(Cl)c3ccc2n1Cc1ccccc1F [Compound 45]	< 500	< 25	–
O=C(O)c1c(-c2ccc[nH]c2=O)c2c3occ(Cl)c3ccc2n1Cc1cc(F)ccc1F [Compound 46]	< 500	< 25	–
Cc1coc2c1ccc1c2c(-c2ccc[nH]c2=O)c(C(=O)O)n1Cc1cc(F)ccc1F [Compound 47]	> 1500	> 100	–
Cc1cccc(Cn2c(C(=O)O)c(-c3ccc[nH]c3=O)c3c4occ(C)c4ccc32)c1F [Compound 48]	> 1500	> 100	–
CS(=O)(=O)NC(=O)c1c(-c2ccc[nH]c2=O)c2c3ncsc3ccc2n1Cc1ccccc1F [Compound 50]	< 500	< 25	–
Cc1ccccc1Cn1c(C(=O)NS(C)(=O)=O)c(-c2ccc[nH]c2=O)c2c3ncsc3ccc21 [Compound 51]	< 500	–	< 25
